# Where two headings read alike, the source gives them in different places.
# Key:
# in vivo = settings: mouse, po, 100 mg/kg
# Method: The new antibiotics according to the present invention were each orally administered to mice at a dose of 100 mg/kg. Each blood level was then measured and compared with those of tylosin and 3-acetyltylosin.
# [1] = tested on: Bacillus cereus ATCC 9634; test: antimicrobial activity, broth dilution method; format: cell-based; settings: Bacillus cereus, ATCC9634, Bacillus cereus ATCC 9634; broth dilution; read-out: minimum inhibitory concentration (MIC)
# Method: (§1) Antimicrobial activity of the new antibiotics according to the present invention was measured on various pathogenic microorganisms by the broth dilution mehtod. Tab. […] The new antibiotics show a similar antimicrobial spectrum to that of tylosin as shown in Tab. 4. All the compounds have an excellent antimicrobial activity mainly on gram-positive bacteria. […] Test microorganisms with an asterisk mark (*) in Tab. 4 are all drug-resistant strains that were clinically isolated. More in detail, Staphylococcus aureus MS-8710 is resistant to tylosin, penicillin, tetracycline, erythromycin and leucomycin. Staphylococcus aureus MS-9931 is resistant to tylosin, penicillin, erythromycin, tetracycline, leucomycin, spiramycin and josamycin. And also Streptococcus piogenes is resistant to tylosin, erythromycin, oleandomycin and leucomycin.
# [2] = tested on: Staphylococcus aureus SMITH; test: antimicrobial activity, broth dilution method; format: cell-based; settings: Staphylococcus aureus, Staphylococcus aureus SMITH; broth dilution; read-out: minimum inhibitory concentration (MIC)
# Method: as §1
# [3] = tested on: Staphylococcus aureus MS-9931; test: antimicrobial activity, broth dilution method; format: cell-based; settings: MS9931; Staphylococcus aureus MS-9931, drug-resistant clinical isolate; read-out: minimum inhibitory concentration (MIC)
# Method: as §1
# [4] = tested on: Streptococcus pyogenes MH-771; test: antimicrobial activity, broth dilution method; format: cell-based; settings: Streptococcus pyogenes, MH771, Streptococcus pyogenes MH-771, drug-resistant clinical isolate; read-out: minimum inhibitory concentration (MIC)
# Method: as §1
# [5] = tested on: Staphylococcus aureus FDA-209P; test: antimicrobial activity, broth dilution method; format: cell-based; settings: Staphylococcus aureus, FDA209P, Staphylococcus aureus FDA-209P; broth dilution; read-out: minimum inhibitory concentration (MIC)
# Method: as §1
# [6] = tested on: Staphylococcus aureus MS-9937; test: antimicrobial activity, broth dilution method; format: cell-based; settings: MS9937; Staphylococcus aureus MS-9937, drug-resistant clinical isolate; read-out: minimum inhibitory concentration (MIC)
# Method: as §1
# Sarcina lutea ATCC 9341 = test: antimicrobial activity, broth dilution method; format: cell-based; settings: Micrococcus luteus, ATCC9341, Sarcina lutea ATCC 9341, read-out: minimum inhibitory concentration (MIC)
# Method: as §1
# [7] = tested on: Staphylococcus aureus MS-8710; test: antimicrobial activity, broth dilution method; format: cell-based; settings: Staphylococcus aureus, MS8710, Staphylococcus aureus MS-8710, drug-resistant clinical isolate; read-out: minimum inhibitory concentration (MIC)
# Method: as §1
# [8] = tested on: Mycoplasma gallisepticum KP-13; test: antibacterial activity against Mycoplasma; format: cell-based; settings: Mycoplasmoides gallisepticum, KP13
# Description: (§2) Furthermore the new antibiotics according to the present invention also show antimicrobial activity on Mycoplasma. In particular, it is noteworthy that they have much higher antimicrobial activity than tylosin on Mycoplasma that is resistant to macrolide antibiotics. Tab.
# (§3) **Medium (Eiken PPLO Medium)
# [9] = tested on: Mycoplasma gallisepticum E-11; test: antibacterial activity against Mycoplasma; format: cell-based; settings: Mycoplasmoides gallisepticum, E11
# Description: as §2
# (§4) *Macrolide resistant strain
# as §3
# [10] = tested on: Mycoplasma gallisepticum E-5; test: antibacterial activity against Mycoplasma; format: cell-based; settings: Mycoplasmoides gallisepticum, E5
# Description: as §2, §4, §3
# [11] = tested on: Mycoplasma gallisepticum A-72; test: antibacterial activity against Mycoplasma; format: cell-based; settings: Mycoplasmoides gallisepticum, A72; strain A-72, macrolide resistant; Eiken PPLO Medium
# Description: as §2, §4, §3
# [12] = strain KP-13, Eiken PPLO Medium, read-out: MIC
# [13] = strain E-11, macrolide resistant, Eiken PPLO Medium, read-out: MIC
# [14] = strain E-5, macrolide resistant, Eiken PPLO Medium, read-out: MIC
SMILES,Cmax (in vivo),MIC [1],MIC [2],MIC [3],MIC [4],MIC [5],MIC [6],MIC (Sarcina lutea ATCC 9341),MIC [7],concentration at 1 h (in vivo),concentration at 3 h (in vivo),"MIC [8, 12]","MIC [9, 13]","MIC [10, 14]",MIC [11],MIC [10],MIC [8],MIC [9]
"CCC1OC(=O)CC(OC(C)=O)C(C)C(OC2OC(C)C(OC3CC(C)(O)C(O)C(C)O3)C(N(C)C)C2O)C(CC=O)CC(C)C(=O)C=CC(C)=CC1COC1OC(C)C(O)C(OC)C1OC (stereo not shown) [3-acetyltylosin, reference compound]",2000 to 5000 ng/mL,0.78 µg/mL,0.39 µg/mL,200 µg/mL,200 µg/mL,0.39 µg/mL,100 µg/mL,0.19 µg/mL,200 µg/mL,,,,,,,,,
"CCC1OC(=O)CC(O)C(C)C(OC2OC(C)C(OC3CC(C)(O)C(OC(=O)CCc4ccccc4)C(C)O3)C(N(C)C)C2O)C(CC=O)CC(C)C(=O)C=CC(C)=CC1COC1OC(C)C(O)C(OC)C1OC (stereo not drawn) [Compound 24, 4""-β-phenylpropionyltylosin]",,0.78 µg/mL,0.39 µg/mL,12.5 µg/mL,25 µg/mL,0.78 µg/mL,25 µg/mL,0.19 µg/mL,12.5 µg/mL,12000 ng/mL,2000 ng/mL,0.078 µg/mL,0.313 µg/mL,0.313 µg/mL,0.157 µg/mL,,,
"CCC1OC(=O)CC(O)C(C)C(OC2OC(C)C(OC3CC(C)(O)C(OC(=O)CCC4CCCCC4)C(C)O3)C(N(C)C)C2O)C(CC=O)CC(C)C(=O)C=CC(C)=CC1COC1OC(C)C(O)C(OC)C1OC (stereo not drawn) [Compound 29, 4""-β-cyclohexylpropionyl tylosin]",,0.78 µg/mL,0.78 µg/mL,12.5 µg/mL,6.25 µg/mL,0.78 µg/mL,12.5 µg/mL,0.39 µg/mL,12.5 µg/mL,,,0.039 µg/mL,0.625 µg/mL,,0.313 µg/mL,0.313 µg/mL,,
"CCC1OC(=O)CC(OC(C)=O)C(C)C(OC2OC(C)C(OC3CC(C)(O)C(OC(=O)CN(C(C)=O)c4ccccc4)C(C)O3)C(N(C)C)C2O)C(CC=O)CC(C)C(=O)C=CC(C)=CC1COC1OC(C)C(O)C(OC)C1OC (stereo not shown) [Compound 32, 3-acetyl-4""-(N-acetylanilino)acetyltylosin]",,0.78 µg/mL,0.78 µg/mL,25 µg/mL,12.5 µg/mL,0.78 µg/mL,25 µg/mL,0.39 µg/mL,12.5 µg/mL,,,,0.313 µg/mL,0.313 µg/mL,0.157 µg/mL,,0.157 µg/mL,
"CCC1OC(=O)CC(O)C(C)C(OC2OC(C)C(OC3CC(C)(O)C(OC(=O)CSc4ccc(Cl)cc4)C(C)O3)C(N(C)C)C2O)C(CC=O)CC(C)C(=O)C=CC(C)=CC1COC1OC(C)C(O)C(OC)C1OC (stereo not shown) [Compound 37, 4""-(4-chlorophenyl)thioacetyltylosin]",,0.78 µg/mL,0.39 µg/mL,6.25 µg/mL,3.13 µg/mL,0.39 µg/mL,6.25 µg/mL,0.19 µg/mL,12.5 µg/mL,,,,,,,,,
"CCC1OC(=O)CC(OC(C)=O)C(C)C(OC2OC(C)C(OC3CC(C)(O)C(OC(=O)CSCc4ccccc4)C(C)O3)C(N(C)C)C2O)C(CC=O)CC(C)C(=O)C=CC(C)=CC1COC1OC(C)C(O)C(OC)C1OC (stereo not shown) [Compound 38, 3-acetyl-4""-benzylthioacetyltylosin]",,1.56 µg/mL,0.78 µg/mL,12.5 µg/mL,6.25 µg/mL,0.78 µg/mL,12.5 µg/mL,0.39 µg/mL,12.5 µg/mL,,,0.019 µg/mL,0.078 µg/mL,0.078 µg/mL,0.078 µg/mL,,,
"CCC1OC(=O)CC(O)C(C)C(OC2OC(C)C(OC3CC(C)(O)C(OC(=O)CCSc4ccccc4)C(C)O3)C(N(C)C)C2O)C(CC=O)CC(C)C(=O)C=CC(C)=CC1COC1OC(C)C(O)C(OC)C1OC (stereo not drawn) [Compound 39, 4""-β-phenylthiopropionyltylosin]",,0.39 µg/mL,0.39 µg/mL,12.5 µg/mL,6.25 µg/mL,0.78 µg/mL,12.5 µg/mL,0.19 µg/mL,12.5 µg/mL,,,,,,,,,
"CCC1OC(=O)CC(O)C(C)C(OC2OC(C)C(OC3CC(C)(O)C(OC(=O)CSC4CCCCC4)C(C)O3)C(N(C)C)C2O)C(CC=O)CC(C)C(=O)C=CC(C)=CC1COC1OC(C)C(O)C(OC)C1OC (stereo not shown) [Compound 40, 4""-cyclohexylthioacetyltylosin]",,0.78 µg/mL,0.78 µg/mL,12.5 µg/mL,6.25 µg/mL,0.78 µg/mL,25 µg/mL,0.39 µg/mL,12.5 µg/mL,,,0.078 µg/mL,,,0.157 µg/mL,0.157 µg/mL,,0.157 µg/mL
"CCC1OC(=O)CC(O)C(C)C(OC2OC(C)C(OC3CC(C)(O)C(OC(=O)CSc4ccncc4)C(C)O3)C(N(C)C)C2O)C(CC=O)CC(C)C(=O)C=CC(C)=CC1COC1OC(C)C(O)C(OC)C1OC (stereo not shown) [Compound 41, 4""-(4-pyridyl)thioacetyltylosin]",,0.39 µg/mL,0.39 µg/mL,12.5 µg/mL,12.5 µg/mL,0.78 µg/mL,12.5 µg/mL,0.19 µg/mL,12.5 µg/mL,,,0.039 µg/mL,0.313 µg/mL,0.313 µg/mL,0.157 µg/mL,,,
"CCC1OC(=O)CC(OC(C)=O)C(C)C(OC2OC(C)C(OC3CC(C)(O)C(OC(=O)CSc4ccncc4)C(C)O3)C(N(C)C)C2O)C(CC=O)CC(C)C(=O)C=CC(C)=CC1COC1OC(C)C(O)C(OC)C1OC (stereo not shown) [Compound 42, 3-acetyl-4""-(4-pyridyl)thioacetyltylosin]",,0.39 µg/mL,0.39 µg/mL,12.5 µg/mL,3.13 µg/mL,0.39 µg/mL,6.25 µg/mL,0.19 µg/mL,6.25 µg/mL,,,,,,,,,
"CCC1OC(=O)CC(O)C(C)C(OC2OC(C)C(OC3CC(C)(O)C(OC(=O)COc4ccccc4)C(C)O3)C(N(C)C)C2O)C(CC=O)CC(C)C(=O)C=CC(C)=CC1COC1OC(C)C(O)C(OC)C1OC (stereo not shown) [Compound 44, 4""-phenoxyacetyltylosin]",,0.78 µg/mL,0.39 µg/mL,25 µg/mL,6.25 µg/mL,0.39 µg/mL,25 µg/mL,0.19 µg/mL,25 µg/mL,,,,,,,,,
"CCC1OC(=O)CC(OC(C)=O)C(C)C(OC2OC(C)C(OC3CC(C)(O)C(OC(=O)COc4ccccc4)C(C)O3)C(N(C)C)C2O)C(CC=O)CC(C)C(=O)C=CC(C)=CC1COC1OC(C)C(O)C(OC)C1OC (stereo not shown) [Compound 45, 3-acetyl-4""-phenoxyacetyltylosin]",,0.39 µg/mL,0.39 µg/mL,25 µg/mL,12.5 µg/mL,0.39 µg/mL,25 µg/mL,0.19 µg/mL,100 µg/mL,,,,,,,,,
"CCC1OC(=O)CC(O)C(C)C(OC2OC(C)C(OC3CC(C)(O)C(OC(=O)C(C)Oc4ccccc4)C(C)O3)C(N(C)C)C2O)C(CC=O)CC(C)C(=O)C=CC(C)=CC1COC1OC(C)C(O)C(OC)C1OC (stereo not drawn) [Compound 46, 4""-α-phenoxypropionyltylosin]",,0.39 µg/mL,0.39 µg/mL,25 µg/mL,12.5 µg/mL,0.78 µg/mL,50 µg/mL,0.19 µg/mL,25 µg/mL,,,,,,,,,
"CCC1OC(=O)CC(O)C(C)C(OC2OC(C)C(OC3CC(C)(O)C(OC(=O)COc4ccc5ccccc5c4)C(C)O3)C(N(C)C)C2O)C(CC=O)CC(C)C(=O)C=CC(C)=CC1COC1OC(C)C(O)C(OC)C1OC (stereo not drawn) [Compound 47, 4""-β-napthoxyacetyltylosin]",,0.78 µg/mL,0.78 µg/mL,25 µg/mL,12.5 µg/mL,0.78 µg/mL,25 µg/mL,0.19 µg/mL,25 µg/mL,,,,,,,,,

# From patent US4205163A, “Tylosin derivatives” (Sanraku-Ocean Co., Ltd., priority 1977, dated 1980)
